What all share (experiment): IA-DTB cysteine engagement
Holding throughout (format): binding
Holding throughout (conditions): 22Rv1 cells, 20 μM probe, 1 h, relative to DMSO

One experiment concerns the target T1, SCAMP4_C20 (Homo sapiens, UniProt Q969E2).
T1 construct: endogenous in cells; host or cells: 22Rv1
T1 sequence (Q969E2 1-229): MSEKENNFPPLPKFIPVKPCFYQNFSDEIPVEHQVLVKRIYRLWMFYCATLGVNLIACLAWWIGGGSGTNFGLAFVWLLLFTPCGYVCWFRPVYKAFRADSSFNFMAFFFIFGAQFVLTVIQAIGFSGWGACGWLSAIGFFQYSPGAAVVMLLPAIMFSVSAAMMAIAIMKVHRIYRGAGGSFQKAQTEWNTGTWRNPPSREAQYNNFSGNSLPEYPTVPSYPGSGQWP
In short, it runs like this:
(§1)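 Read-out is TMT-based cysteine engagement, expressed as each reporter ion intensity divided by the average of the DMSO channels. Before that, probe-treated cell lysates were capped with IA-DTB, digested, enriched on streptavidin and TMT-tagged. PSMs with DMSO summed intensity <10,000 or DMSO CV >0.5 were excluded.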

Another experiment addresses T2, SYNE2_C2993 (Homo sapiens, UniProt Q8WXH0).
T2 construct: endogenous in cells; host or cells: 22Rv1
Put shortly: as §1

Another experiment concerns the target T3, PLPPR2_C207 (Homo sapiens, UniProt Q96GM1).
T3 construct: endogenous in cells; host or cells: 22Rv1
T3 sequence (Q96GM1 1-343): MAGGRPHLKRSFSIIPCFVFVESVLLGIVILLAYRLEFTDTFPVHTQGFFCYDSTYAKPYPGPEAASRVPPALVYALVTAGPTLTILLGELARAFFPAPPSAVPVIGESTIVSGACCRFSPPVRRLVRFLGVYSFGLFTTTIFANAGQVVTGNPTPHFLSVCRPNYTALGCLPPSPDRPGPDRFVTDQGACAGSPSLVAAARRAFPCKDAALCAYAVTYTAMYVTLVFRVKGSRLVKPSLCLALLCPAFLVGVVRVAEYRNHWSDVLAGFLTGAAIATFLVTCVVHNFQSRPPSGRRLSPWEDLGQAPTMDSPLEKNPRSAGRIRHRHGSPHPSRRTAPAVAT
In short, it runs like this: as §1

Another experiment deals with T4, HSDL1_C265 (Homo sapiens, UniProt Q3SXM5).
T4 construct: endogenous in cells; host or cells: 22Rv1
T4 sequence (Q3SXM5 1-330): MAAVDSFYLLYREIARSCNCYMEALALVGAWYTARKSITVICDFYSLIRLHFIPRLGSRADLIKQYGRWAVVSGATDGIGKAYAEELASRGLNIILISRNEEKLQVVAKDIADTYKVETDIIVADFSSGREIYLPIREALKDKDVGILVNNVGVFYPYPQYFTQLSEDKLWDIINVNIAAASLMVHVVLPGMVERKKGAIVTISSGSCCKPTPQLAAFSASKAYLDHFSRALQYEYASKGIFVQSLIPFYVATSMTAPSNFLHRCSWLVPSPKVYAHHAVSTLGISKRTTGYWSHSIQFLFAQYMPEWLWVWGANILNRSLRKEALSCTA
Put shortly:
as §1

The target of a further experiment is T5, ALB_C269 (Homo sapiens, UniProt P02768).
T5 construct: endogenous in cells; host or cells: 22Rv1
In short, it runs like this: as §1

T5 sequence (P02768 25-609): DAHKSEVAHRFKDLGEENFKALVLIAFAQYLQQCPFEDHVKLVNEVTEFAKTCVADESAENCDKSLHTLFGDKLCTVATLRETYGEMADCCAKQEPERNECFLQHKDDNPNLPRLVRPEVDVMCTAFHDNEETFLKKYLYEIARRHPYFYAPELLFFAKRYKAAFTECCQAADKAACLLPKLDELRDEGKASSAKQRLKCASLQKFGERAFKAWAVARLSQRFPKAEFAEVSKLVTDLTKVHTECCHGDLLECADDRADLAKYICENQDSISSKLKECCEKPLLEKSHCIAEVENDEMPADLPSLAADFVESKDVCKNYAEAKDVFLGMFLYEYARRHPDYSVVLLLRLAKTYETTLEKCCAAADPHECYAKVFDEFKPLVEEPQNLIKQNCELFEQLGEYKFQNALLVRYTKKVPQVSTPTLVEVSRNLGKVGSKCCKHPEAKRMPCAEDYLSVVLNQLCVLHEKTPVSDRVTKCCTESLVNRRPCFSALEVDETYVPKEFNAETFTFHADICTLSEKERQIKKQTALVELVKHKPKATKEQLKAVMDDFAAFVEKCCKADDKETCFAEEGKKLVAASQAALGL

Consider `C=CC(=O)N1C[C@@H](c2ccc(Br)cc2)[C@H]1C(=O)Nc1cccc2cccnc12` [MY-1A, (2S,3R)-1-acryloyl-3-(4-bromophenyl)-N-(quinolin-8-yl)azetidine-2-carboxamide], for which the “% engagement SCAMP4_C20” value at SCAMP4_C20 was determined as 80%. The “% engagement SYNE2_C2993” value at SYNE2_C2993 was −20%. Further, at PLPPR2_C207, the “% engagement PLPPR2_C207” value is reported as 30.5%. On HSDL1_C265, the “% engagement HSDL1_C265” value amounted to 52%. Besides, the “% engagement ALB_C269” value on ALB_C269 was determined as 42.5%.

Consider `C=CC(=O)N1C[C@H](c2ccc(Br)cc2)[C@@H]1C(=O)Nc1cccc2cccnc12` [MY-1B, (2R,3S)-1-acryloyl-3-(4-bromophenyl)-N-(quinolin-8-yl)azetidine-2-carboxamide], for which the “% engagement SCAMP4_C20” value at SCAMP4_C20 came out at 85.5%. For the same compound, the “% engagement SYNE2_C2993” value at SYNE2_C2993 was found to be 76.5%. Further, the “% engagement PLPPR2_C207” value at PLPPR2_C207 is recorded as 31%. For the same compound, the “% engagement HSDL1_C265” value on HSDL1_C265 is listed as 54%. Also, the “% engagement ALB_C269” value on ALB_C269 is 47.5%.

On to `C=CC(=O)N1C[C@H](c2ccc(Br)cc2)[C@H]1C(=O)Nc1cccc2cccnc12` [MY-3A, (2S,3S)-1-acryloyl-3-(4-bromophenyl)-N-(quinolin-8-yl)azetidine-2-carboxamide], for which the “% engagement SCAMP4_C20” value on SCAMP4_C20 is given as 72.5%. At SYNE2_C2993, the “% engagement SYNE2_C2993” value is reported as 26.5%. Besides, the “% engagement PLPPR2_C207” value on PLPPR2_C207 was 46.5%. The “% engagement HSDL1_C265” value on HSDL1_C265 is 64.25%. The “% engagement ALB_C269” value on ALB_C269 amounted to 86%.

Take `C=CC(=O)N1C[C@H](c2ccc(Br)cc2)[C@H]1C(=O)Nc1cccc2cccnc12` [MY-3B, (2S,3S)-1-acryloyl-3-(4-bromophenyl)-N-(quinolin-8-yl)azetidine-2-carboxamide]: the “% engagement SCAMP4_C20” value on SCAMP4_C20 was found to be 100%. The “% engagement SYNE2_C2993” value on SYNE2_C2993 was 54.5%. Further, the “% engagement PLPPR2_C207” value on PLPPR2_C207 was found to be 71%. The “% engagement HSDL1_C265” value on HSDL1_C265 came to 82%. Moreover, the “% engagement ALB_C269” value on ALB_C269 was 79.5%.

The values are drawn from patent publication US20250034216A1, “STEREOSELECTIVE COVALENT LIGANDS FOR ONCOGENIC AND IMMUNOLOGICAL PROTEINS” (The Scripps Research Institute, priority 2021, published 2025).
